GI50 data for twelve molecules are collected here from patent publication US11602534B2, “Pyrimidine derivative kinase inhibitors” (HEFEI INSTITUTES OF PHYSICAL SCIENCE, CHINESE ACADEMY OF …, priority 2017, dated 2023).

For orientation: GI50 means the concentration at which growth is held to half of that of the control. A high value points to less potent growth inhibition.

For one test, the system named is TEL-PDGFRα-BaF3. The test can be described thus: Proliferation of TEL-PDGFRα-BaF3 cells, CCK8 cell viability assay. The conditions noted are these: Mus musculus, 72 hours, stably expressing PDGFRα kinase. The class given is cell-based. The source says: (§1) In this example the following cells were used: […] (purchased from ATCC), mouse P210-BaF3 (stably expressing BCR-ABL mutant activated kinase), mouse P210/T315I-BaF3 (stably expressing BCR-ABL/T315I mutant activated kinase), mouse FLT3-ITD-BaF3 (stably expressing FLT3/ITD mutant activated kinase), mouse TEL-FLT3-BaF3 (stably expressing FLT3 kinase), mouse TEL-cKIT-BaF3 (stably expressing cKIT kinase), mouse BaF3-tel/T670I-cKit (stably expressing cKIT/T670I mutant activated kinase), mouse Tel-VEGFR2-BaF3 (stably expressing VEGFR2 kinase), mouse Tel-PDGFRα-BaF3 (stably expressing PDGFRα kinase), mouse Tel-PDGFRβ-BaF3 (stably expressing PDGFRβ kinase), mouse Tel-RET-BaF3 (stably expressing RET kinase). The above cell lines were all constructed by our laboratory according to the following method: the kinase region sequences of human P210, P210/T315I, FLT3/ITD, FLT3, cKIT, cKIT/T670I, VEGFR2, PDGFRα, PDGFRβ, RET were respectively amplified by PCR, and inserted into MSCV-Puro vectors having N-terminal TEL or TPR fragments (Clontech). The vectors were stably transfected into mouse BaF3 cells by means of retrovirus, and the growth factor IL-3 were removed, eventually obtaining cell lines that depend on transferred protein P210, P210/T315I, FLT3/ITD, FLT3, cKIT, cKIT/T670I, VEGFR2, PDGFRα, PDGFRβ, or RET.
(§2) GI50 (unit: μM) was calculated by quantifying the number of living cells based on quantitative measurement of reductive dehydrogenase in living cells with CCK8 cell viability assay kit (Bestbio, China).
In general terms: Tetrazolium dyes change colour on reduction, which living cells bring about.

Another test relates to P210/T315I-BaF3. The test can be described thus: Proliferation of P210/T315I-BaF3 cells, CCK8 cell viability assay. It is filed as cell-based. The conditions noted are these: Mus musculus, 72 hours, stably expressing BCR-ABL/T315I.
Text: as §1, §2

In another test the test system is BaF3. In words: Proliferation of BaF3 cells, CCK8 cell viability assay. It is filed as cell-based. To be noted: Mus musculus, 72 hours.
Text: as §1, §2

The test system of a further test is TEL-VEGFR2-BaF3. In words: Proliferation of TEL-VEGFR2-BaF3 cells, CCK8 cell viability assay. To be noted: Mus musculus, 72 hours, stably expressing VEGFR2 kinase. The class given is cell-based.
Text: as §1, §2

The test system of the next test is TEL-PDGFRβ-BaF3. In words: Proliferation of TEL-PDGFRβ-BaF3 cells, CCK8 cell viability assay. To be noted: Mus musculus, 72 hours, stably expressing PDGFRβ kinase. It is filed as cell-based.
Text: as §1, §2

Another test relates to P210-BaF3. In words: Proliferation of P210-BaF3 cells, CCK8 cell viability assay. The class given is cell-based. To be noted: Mus musculus, 72 hours, stably expressing BCR-ABL mutant activated kinase.
Text: as §1, §2

Another test relates to Tel-FLT3-BaF3. The test can be described thus: Proliferation of Tel-FLT3-BaF3 cells, CCK8 cell viability assay. To be noted: Mus musculus, 72 hours, stably expressing FLT3 kinase. It is filed as cell-based.
Text: as §1, §2

A further test relates to FLT3-ITD-BaF3. In words: Proliferation of FLT3-ITD-BaF3 cells, CCK8 cell viability assay. The class given is cell-based. The conditions noted are these: Mus musculus, 72 hours, stably expressing FLT3/ITD.
Text: as §1, §2

The subject of another test is Tel-cKit/T670I-BaF3. The test can be described thus: Proliferation of Tel-cKit/T670I-BaF3 cells, CCK8 cell viability assay. It is filed as cell-based. The conditions noted are these: Mus musculus, 72 hours, stably expressing cKIT/T670I.
Text: as §1, §2

The test system of the next test is Tel-cKit-BaF3. The test can be described thus: Proliferation of Tel-cKit-BaF3 cells, CCK8 cell viability assay. It is filed as cell-based, mouse. To be noted: Mus musculus; 72 hours, CCK8; stably expressing cKIT kinase.
Text: as §1, §2

A value given as a limit tells only on which side of the number the result lay.

Regarding `CC(C)(C)C(=O)Nc1cc(Oc2ccc(NC(=O)Cc3ccc(C(F)(F)F)cc3)cc2)ncn1` [Example 52, 2,2-dimethyl-N-(6-{4-[2-(4-trifluoromethyl-phenyl)-acetylamino]-phenoxy}-pyrimidin-4-yl)-propanamide], the GI50 is 33 nM with TEL-PDGFRα-BaF3; greater than 10 µM in the test on P210/T315I-BaF3; greater than 10 µM in the test with BaF3; 3420 nM in the test with TEL-VEGFR2-BaF3; 92 nM with TEL-PDGFRβ-BaF3; greater than 10 µM with P210-BaF3. In addition, the GI50 came to 3000 nM in the test on Tel-FLT3-BaF3, 374 nM with FLT3-ITD-BaF3, 5.68 µM in the test on Tel-cKit/T670I-BaF3 and 2260 nM in the test on Tel-cKit-BaF3.
Turning to `CC(=O)Nc1cc(Oc2ccc(NC(=O)Cc3ccc(C)c(C)c3)cc2)ncn1` [Example 60, N-[4-(6-acetylamino-pyrimidin-4-yloxy)-phenyl]-2-(3,4-dimethyl-phenyl)-acetamide], the GI50 with TEL-PDGFRα-BaF3 was 11 nM; with P210/T315I-BaF3, greater than 10 µM; in the test on BaF3 it was greater than 10 µM; with TEL-VEGFR2-BaF3 it was 433 nM; in the test on TEL-PDGFRβ-BaF3, 26 nM; in the test with P210-BaF3 it was greater than 10 µM. The GI50 in the test with Tel-FLT3-BaF3 is 195 nM; in the test with FLT3-ITD-BaF3 it was 14 nM; with Tel-cKit/T670I-BaF3, 1.88 µM; with Tel-cKit-BaF3 it was 917 nM.
Turning to `COc1ccc(CC(=O)Nc2ccc(Oc3cc(NC(C)=O)ncn3)cc2)cc1OC` [Example 61, N-[4-(6-acetylamino-pyrimidin-4-yloxy)-phenyl]-2-(3,4-dimethoxy-phenyl)-acetamide], the GI50 in the test with TEL-PDGFRα-BaF3 was 74 nM; with P210/T315I-BaF3, 9.77 µM; in the test with BaF3, 5.71 µM; in the test on TEL-VEGFR2-BaF3 it was 1780 nM; in the test on TEL-PDGFRβ-BaF3, 233 nM; in the test on P210-BaF3, 5.61 µM. In addition, the GI50 in the test with Tel-FLT3-BaF3 was 1390 nM; in the test with FLT3-ITD-BaF3 it was 63 nM; in the test with Tel-cKit/T670I-BaF3 it was greater than 10 µM; with Tel-cKit-BaF3 it was 4890 nM.
Consider `COc1cc(CC(=O)Nc2ccc(Oc3cc(NC(C)=O)ncn3)cc2)cc(OC)c1OC` [Example 62, N-[4-(6-acetylamino-pyrimidin-4-yloxy)-phenyl]-2-(3,4,5-trimethoxy-phenyl)-acetamide], for which the GI50 in the test on TEL-PDGFRα-BaF3 is 45 nM; in the test with P210/T315I-BaF3, greater than 10 µM; with BaF3, greater than 10 µM; in the test with TEL-VEGFR2-BaF3, 1180 nM; in the test on TEL-PDGFRβ-BaF3, 231 nM; in the test with P210-BaF3 it was greater than 10 µM. For the same molecule, the GI50 in the test with Tel-FLT3-BaF3 is 390 nM; in the test with FLT3-ITD-BaF3, 50 nM; in the test with Tel-cKit/T670I-BaF3, 6.58 µM; in the test with Tel-cKit-BaF3, 810 nM.
For `CC(=O)Nc1cc(Oc2ccc(NC(=O)C(O)c3ccccc3F)cc2)ncn1` (centres unmarked) [Example 63, N-[4-(6-acetylamino-pyrimidin-4-yloxy)-phenyl]-2-(2-fluoro-phenyl)-2-hydroxy-acetamide], the GI50 was 476 nM with TEL-PDGFRα-BaF3; greater than 10 µM in the test on P210/T315I-BaF3; greater than 10 µM in the test with BaF3; 3430 nM with TEL-VEGFR2-BaF3; 5750 nM in the test on TEL-PDGFRβ-BaF3; greater than 10 µM in the test with P210-BaF3. Further, the GI50 in the test on Tel-FLT3-BaF3 was 4680 nM; with FLT3-ITD-BaF3, 325 nM; in the test with Tel-cKit/T670I-BaF3, greater than 10 µM; in the test on Tel-cKit-BaF3 it was greater than 10000 nM.
Regarding `CC(=O)Nc1cc(Oc2ccc(NC(=O)Cc3ccc(C(C)(C)C)cc3)cc2)ncn1` [Example 65, N-[4-(6-acetylamino-pyrimidin-4-yloxy)-phenyl]-2-(4-tert-butyl-phenyl)-acetamide], the GI50 was 12 nM in the test with TEL-PDGFRα-BaF3; greater than 10 µM in the test on P210/T315I-BaF3; greater than 10 µM in the test on BaF3; 277 nM in the test with TEL-VEGFR2-BaF3; 84 nM in the test with TEL-PDGFRβ-BaF3; greater than 10 µM in the test with P210-BaF3. The GI50 in the test with Tel-FLT3-BaF3 came out at 612 nM; with FLT3-ITD-BaF3 it was 24 nM; with Tel-cKit/T670I-BaF3 it was 1.07 µM; in the test on Tel-cKit-BaF3, 376 nM.
`CC(=O)Nc1cc(Sc2ccc(NC(=O)Cc3ccccc3C(F)(F)F)cc2)ncn1` [Example 67, N-[4-(6-acetylamino-pyrimidin-4-ylsulfanyl)-phenyl]-2-(2-trifluoromethyl-phenyl)-acetamide]: the GI50 in the test on TEL-PDGFRα-BaF3 is 14 nM; in the test on P210/T315I-BaF3 it was 9.79 µM; with BaF3, greater than 10 µM; in the test with TEL-VEGFR2-BaF3, 7820 nM; in the test on TEL-PDGFRβ-BaF3, 312 nM; with P210-BaF3, 8.08 µM. Moreover, the GI50 was 1470 nM with Tel-FLT3-BaF3, 291 nM with FLT3-ITD-BaF3, greater than 10 µM with Tel-cKit/T670I-BaF3 and 6170 nM with Tel-cKit-BaF3.
`Cc1ccc(NC(=O)Cc2ccc(Oc3cc(NCCN)ncn3)cc2)cc1C(F)(F)F` [Example 137, 2-(4-((6-((2-aminoethyl)amino)pyrimidin-4-yl)oxy)phenyl)-N-(4-methyl-3-(trifluoromethyl)phenyl)acetamide]: the GI50 in the test on TEL-PDGFRα-BaF3 is 11 nM; with P210/T315I-BaF3 it was 9.93 µM; in the test with BaF3 it was greater than 10 µM; with TEL-VEGFR2-BaF3, 149 nM; in the test with TEL-PDGFRβ-BaF3, 34 nM; in the test with P210-BaF3, greater than 10 µM. The GI50 in the test with Tel-FLT3-BaF3 is 40 nM; in the test on FLT3-ITD-BaF3, 12 nM; in the test with Tel-cKit/T670I-BaF3 it was 0.323 µM; with Tel-cKit-BaF3 it was 465 nM.
Turning to `CCCC(=O)Nc1cc(Oc2ccc(NC(=O)Cc3ccccc3C(F)(F)F)cc2)ncn1` [Example 167, N-(6-{4-[2-(2-trifluoromethyl-phenyl)-acetylamino]-phenoxy}-pyrimidin-4-yl)-butyramide], the GI50 in the test on TEL-PDGFRα-BaF3 is 41 nM; in the test on P210/T315I-BaF3 it was greater than 10 µM; in the test with BaF3 it was greater than 10 µM; in the test on TEL-PDGFRβ-BaF3 it was 112 nM; in the test on P210-BaF3, greater than 10 µM; with Tel-FLT3-BaF3, 513 nM. In addition, the GI50 in the test on FLT3-ITD-BaF3 was 126 nM; with Tel-cKit/T670I-BaF3, 7.94 µM; with Tel-cKit-BaF3, 9840 nM.
`CC(=O)Nc1cc(Oc2ccc(NC(=O)Cc3ccc(F)c(F)c3)cc2)ncn1` [Example 168, N-[4-(6-acetylamino-pyrimidin-4-yloxy)-phenyl]-2-(3,4-difluoro-phenyl)-acetamide]: the GI50 in the test on TEL-PDGFRα-BaF3 is 6 nM; in the test with P210/T315I-BaF3, greater than 10 µM; in the test on BaF3, greater than 10 µM; in the test with TEL-PDGFRβ-BaF3, 33 nM; in the test with P210-BaF3, greater than 10 µM; in the test on Tel-FLT3-BaF3, 99 nM. For the same molecule, the GI50 came out at 42 nM with FLT3-ITD-BaF3, 4.23 µM in the test on Tel-cKit/T670I-BaF3 and 2690 nM in the test on Tel-cKit-BaF3.
On to `CC(=O)Nc1cc(Oc2ccc(NC(=O)Cc3cccc(Cl)c3)cc2)ncn1` [Example 169, N-[4-(6-acetylamino-pyrimidin-4-yloxy)-phenyl]-2-(3-chloro-phenyl)-acetamide], for which the GI50 in the test with TEL-PDGFRα-BaF3 is 5 nM; in the test with P210/T315I-BaF3 it was greater than 10 µM; in the test on BaF3, greater than 10 µM; in the test with TEL-PDGFRβ-BaF3, 35 nM; in the test with P210-BaF3 it was greater than 10 µM; with Tel-FLT3-BaF3, 105 nM. For the same molecule, the GI50 was 24 nM in the test with FLT3-ITD-BaF3, greater than 10 µM with Tel-cKit/T670I-BaF3 and 1700 nM with Tel-cKit-BaF3.
On to `CC(=O)Nc1cc(Oc2ccc(NC(=O)C(C)c3ccc(C)cc3)cc2)ncn1` (centres unmarked) [Example 170, N-[4-(6-acetylamino-pyrimidin-4-yloxy)-phenyl]-2-(4-methyl-phenyl)-propanamide], for which the GI50 in the test with TEL-PDGFRα-BaF3 was 137 nM; with P210/T315I-BaF3, greater than 10 µM; in the test with BaF3, greater than 10 µM; in the test on TEL-PDGFRβ-BaF3 it was 925 nM; with P210-BaF3, greater than 10 µM; with Tel-FLT3-BaF3, 3160 nM. The results for the GI50 in the test on FLT3-ITD-BaF3, in the test on Tel-cKit/T670I-BaF3 and with Tel-cKit-BaF3 were 1220 nM, greater than 10 µM and greater than 10000 nM, respectively.
